Non-standard residues stand in square brackets, D forms with d. Residues, ends and D or L forms follow the SMILES beside them.
Assays:
[1] = target: T1, Impα3 (Homo sapiens, UniProt O00629); details: literature value for L-NLS counterpart, ref [5],[6],[7], read-out: Kd (ITC) (L-NLS Peptide); cited from earlier work
T1 construct: Human importin α3 isoform (residues 1–521); made in house
T1 sequence (O00629 1-521): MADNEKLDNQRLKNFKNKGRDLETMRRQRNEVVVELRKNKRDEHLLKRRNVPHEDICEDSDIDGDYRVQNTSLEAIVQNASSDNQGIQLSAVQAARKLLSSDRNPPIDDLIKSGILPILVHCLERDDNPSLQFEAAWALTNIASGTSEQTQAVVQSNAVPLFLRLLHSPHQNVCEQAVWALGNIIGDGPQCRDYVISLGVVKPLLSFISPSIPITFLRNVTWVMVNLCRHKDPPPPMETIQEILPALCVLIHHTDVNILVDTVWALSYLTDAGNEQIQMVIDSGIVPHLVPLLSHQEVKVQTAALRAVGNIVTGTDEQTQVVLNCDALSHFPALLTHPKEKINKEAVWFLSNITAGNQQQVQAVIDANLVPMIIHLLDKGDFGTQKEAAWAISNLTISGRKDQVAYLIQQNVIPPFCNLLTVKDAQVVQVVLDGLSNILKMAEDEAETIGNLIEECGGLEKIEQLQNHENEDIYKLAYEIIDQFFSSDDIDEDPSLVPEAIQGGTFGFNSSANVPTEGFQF
Description: (§1) Table 2 Kinetic and thermodynamic parameters of the binding reaction of D-NLS peptides to Impα3 ^a. | column: Kd (μM) (ITC/Fluorescence) (L-NLS Peptide) ^c || We also used ITC to determine the thermodynamic binding parameters in the association of each of the peptides to both importin species (Figure 4). […] For D-NLS-NUPR1L, the values of enthalpy, ∆H, were −2.5 ± 0.2 and −4.5 ± 0.7 kcal mol^−1 for the binding to Impα3 and ∆Impα3, respectively. On the other hand, the values previously ...

[2] = target: T2, ∆Impα3 (Homo sapiens, UniProt O00629); details: literature value for L-NLS counterpart, ref [5],[6],[7], read-out: Kd (ITC) (L-NLS Peptide); cited from earlier work
T2 construct: IBB-depleted species of Impα3 (residues 64–521 of the intact protein); made in house
T2 sequence (O00629 64-521): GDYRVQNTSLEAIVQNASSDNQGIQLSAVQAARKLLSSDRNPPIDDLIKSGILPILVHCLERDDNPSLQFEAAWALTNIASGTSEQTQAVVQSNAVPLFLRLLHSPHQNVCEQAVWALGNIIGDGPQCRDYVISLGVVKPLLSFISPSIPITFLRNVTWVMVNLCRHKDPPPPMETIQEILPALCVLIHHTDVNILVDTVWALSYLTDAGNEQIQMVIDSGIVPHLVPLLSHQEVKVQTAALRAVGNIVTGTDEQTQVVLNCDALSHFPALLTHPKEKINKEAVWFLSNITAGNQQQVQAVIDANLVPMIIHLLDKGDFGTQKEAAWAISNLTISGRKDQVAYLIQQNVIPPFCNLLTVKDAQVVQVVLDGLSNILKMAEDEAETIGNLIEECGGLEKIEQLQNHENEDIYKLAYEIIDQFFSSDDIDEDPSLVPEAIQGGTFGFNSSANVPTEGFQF
Description: as §1, with “Table 3 Kinetic and” for “Table 2 Kinetic and”, “peptides to ∆Impα3 ^a. |” for “peptides to Impα3 ^a. |”

[3] = L-NLS counterparts, literature values, ref [5],[6],[7], cited from earlier work
Description: Table 1 Hydrodynamic properties of the D-NLS peptides ^a. | column: D (cm^2 s^−1) × 10^6 (Rh, Å) (L-NLS) ^d

[4] = sequence synthesized in reverse order; ref [38]; cited from earlier work
Description: A few additional conclusions can be drawn from our results, in the context of their relevance for understanding the importance of importin in the regulation of the nucleocytoplasmic transport of cargo proteins. Although we cannot rule out that the intrinsic high flexibility of Impα3 could be involved in its lack of selectivity towards different stereoisomers, we believe the following: (i) the intrinsic disorder of the isolated NLS peptides (derived from the cargos), as shown by NMR (Figure 1 and Figure 2), and (ii) the fact that the peptides remained disordered upon binding to the importin spe ...

[5] = target: T1, Impα3; experiment: Isothermal titration calorimetry (ITC) with Impα3; type: binding; details: Impα3, 50 mM Tris pH 8.0, 25 °C
Protocol: (§2) Calorimetric titrations for testing the interaction of D-NLS peptides with either Impα3 or ΔImpα3 were carried out in an VP-ITC instrument (Microcal, Northhamptom, MA, USA). The importin species were loaded into the cell calorimeter and the corresponding D-NLS peptide in the syringe in Tris buffer 50 mM, pH 8.0. All experiments were carried out at 25 °C.
(§3) These twenty-nine ITC experiments involved sequential injections of microliter amounts (10 µL) of a stock solution of D-NLS peptide (in a concentration range of 150–200 µM) into the calorimetric cell (1.4 mL); the cell initially contained protein solution (15 µM for either Impα3 or ΔImpα3 in protomer units). To correct for the heat evolved due to the dilution effect for adding the ligand (peptide) solution to the calorimetric cell, an independent experiment was performed, in which the same peptide solution was injected into the calorimetric cell loaded with buffer. After correction for the dilution heat, the isotherm was fitted to a binding model that assumed the existence of a single set of binding sites, by using the software v1.41 provided by the manufacturer.

[6] = Translational diffusion NMR (DOSY) of NLS peptides; type: physicochemical; details: ~100 μM peptide, 50 mM deuterated Tris pH 7.2, 100% D2O, 10 °C
Description: For the four peptides, we measured the experimental value of D for dioxane ranging from (1.2 ± 0.1) × 10^−5 to (1.05 ± 0.02) × 10^−5 cm^2 s^−1 in each solution containing the corresponding peptide; we assumed a hydrodynamic radius of 2.12 Å for dioxane (Table 1) under any condition. […] Furthermore, the values of D were similar for the D- and L-peptides, and the latter were already being described as disordered. Thus, we can conclude that the four D-peptides were monomeric and disordered, like the L-form counterparts, and, then, there was no difference in the hydrodynamic properties of the peptides by changing the enantiomeric nature of the residues.
The NMR spectra were acquired at 10 °C on a Bruker Avance III spectrometer (Bruker GmbH, Mannheim, Germany), equipped with a triple-resonance probe and z-pulse field gradients. All NMR experiments with D-NLS peptides were carried out in 50 mM deuterated Tris buffer (not corrected for isotope effects), pH 7.2. Spectra were calibrated with TSP, by considering pH-dependent changes in its chemical shifts; probe temperature was calibrated with pure methanol.
The typical D-NLS peptide concentrations in DOSY experiments were ~100 μM, and 128 scans were acquired, in which the gradient strength was varied linearly in sixteen steps, between 2 and 95% of the total power of the gradient coil. Measurements of the translational self-diffusion coefficient, D, were performed with the pulsed-gradient spin-echo sequence in the presence of 100% D2O. Details on the experimental conditions and fitting of the resulting curves have been described elsewhere. Gradient strength was calibrated by using the value of D for the residual proton water signal in a sample containing 100% D2O, in a 5 mm tube [23]. Gradient length was 2.5 ms; the time between the two pulse gradients in the sequence was 250 ms; and the recovery delay between the bipolar gradients was 100 μs. The signals from methyl groups between 0.8 and 1.0 ppm were used for peak integration, for all the D-NLS peptides. A final concentration of 1% of dioxane, which was assumed to have a hydrodynamic radius Rh of 2.12 Å [23], was added to the solution of each peptide.

[7] = target: T2, ∆Impα3; experiment: Isothermal titration calorimetry (ITC) with ∆Impα3; type: binding; details: ∆Impα3, 50 mM Tris pH 8.0, 25 °C
Protocol: as §2, §3

[8] = target: T2, ∆Impα3; experiment: Biolayer interferometry (BLI) binding to ∆Impα3; details: BLItz, ∆Impα3 immobilized via His-tag (0.25 μM), peptide 1–10 μM, 10 × kinetics buffer, 25 °C, error from pseudo-first order fit, at least two repeats, read-out: kon
Protocol: (§4) The association (kon) and dissociation (koff) rate constants of the binding of D-NLS peptides to either Impα3 or ∆Impα3 were determined by using a BLItz system (ForteBio, Pall, Barcelona, Spain). The buffer used in the experiments was that recommended by the manufacturer. […] The peptide concentrations were in a range from 1 to 10 μM during the association step. The general scheme of the protein association/dissociation reactions in the BLItz system for the D-NLS peptides was as follows: 30 s of initial baseline acquisition with the 10 × kinetics buffer (provided by the manufacturer); 120 s of loading either Impα3 and ∆Impα3 into the biosensor; 30 s of baseline acquisition with the 10 × kinetics buffer; 120 s of association of each peptide to the biosensor (which had been previously loaded with the importin species); and 120 s of monitoring of the dissociation of each peptide from the biosensor. All experiments were carried out at 25 °C.
(§5) Fittings of the BLI sensorgrams was carried out by using KaleidaGraph, as previously described. The interferometry response during the association step, R(t) (measured in response units, RU), and the binding rate, dR(t)/dt, could be used to evaluate the kinetics of the formation of the complex between Impα3/∆Impα3 and each D-NLS, according to:(2) dR/dt=konD-NLSRmax−Rt−koffR(t) where Rmax is proportional to the total concentration of biosensor-bound importin species; and [D-NLS] represents the concentration of the corresponding D-NLS peptide.
(§6) In Equation (2), R(t) is given by:(3) Rt= Req−Reqe^(−kobs t−t0) where Req is the steady-state (or equilibrium) response obtained at infinite time, when dR(t)/dt = 0, and t0 = 180 s is the time at which the association step between biosensor-immobilized Impα3/∆Impα3 and D-NLS in the solution started. We fitted the experimentally obtained R(t) under any condition as:(4) Rt= Req−Reqe^−kobs t−t0−R’eq(t−t0) where R^′eq was included to consider the lineal drift observed at longer times.
(§7) The dissociation process was always fitted to a single exponential, with R(t) given by:(6) Rt=R1 e^(−kofft−t0)−R^″eq(t−t0) where t0 = 300 is the time at which the dissociation of the D-NLS from the biosensor-bound Impα3/∆Impα3 started in our experimental set-up, R1 is the response level when dissociation starts, and the parameter R^″eq considers the linear drift observed at longer times.
(§8) The experiments were repeated at least twice for each peptide with each importin species.

[9] = target: T1, Impα3; experiment: Biolayer interferometry (BLI) binding to Impα3; details: peptide 1–10 μM, 25 °C
Protocol: as §4, §5, §6, §7, §8

Compound: L-NLS-NUPR1: wild-type isolated NLS region of NUPR1, comprising residues 54 to 74 (TNRPSPGGHERKLVTKLQNSE; UniProt O60356 54-74, looked up, fragment)
- Kd [1]: 1700 nM
- Kd [2]: 950 nM
- Hydrodynamic radius Rh (L-NLS) ([3]; estimated from Rh of dioxane): 11 ± 1 Å
- Diffusion coefficient D (L-NLS) [3]: 1.85 ± 0.04 10^-6 cm^2 s^-1

Compound: DLKVRKAA
- Binding, dependence on stereochemistry [4]: binding insensitive to L-/D-stereochemistry has been observed

Compound: CC(=O)N[C@H](CCCNC(=N)N)C(=O)N[C@@H](C(=O)N[C@H](CCCNC(=N)N)C(=O)N[C@H](CCCNC(=N)N)C(=O)N[C@H](CCC(=O)O)C(=O)N[C@H](CCC(N)=O)C(=O)N[C@H](C)C(=O)N[C@H](CC(C)C)C(=O)N[C@H](CCCNC(=N)N)C(=O)N[C@@H](C(=O)N[C@H](CC(N)=O)C(=O)N[C@H](Cc1c[nH]c2ccccc12)C(=O)N1CCC[C@@H]1C(=O)N[C@H](C)C(=O)N1CCC[C@@H]1C(=O)NCC(=O)NCC(=O)N[C@H](Cc1c[nH]cn1)C(=O)N[C@H](CCC(=O)O)C(=O)N[C@H](CCCNC(=N)N)C(=O)N[C@H](CCCCN)C(=O)N[C@@H](C(=O)N[C@H](C)C(=O)N[C@H](CCC(N)=O)C(N)=O)C(C)C)[C@H](C)O)[C@H](C)O [D-NLS-NUPR1L] (Ac-[dR][dT][dR][dR][dE][dQ][dA][dL][dR][dT][dN][dW][dP][dA][dP]GG[dH][dE][dR][dK][dV][dA][dQ]-NH2)
- enthalpy ∆H [5]: -2.5 ± 0.2 kcal/mol
- Diffusion coefficient D [6]: 2.0 ± 0.3 cm^2 s^−1 × 10^6
- enthalpy ∆H [7]: -4.5 ± 0.7 kcal/mol
- kon [8]: 51200 ± 700 M⁻¹ s⁻¹
- kon ([9]; BLItz, Impα3 immobilized via His-tag (0.25 μM), 10 × kinetics buffer, error from pseudo-first order fit, at least two repeats, read-out: kon): 68000 ± 7000 M⁻¹ s⁻¹
- koff ([9]; Impα3 immobilized via His-tag, error from pseudo-first order fit (Equation 5)): 0.069 ± 0.04 s⁻¹
